Laboratory results from ChEMBL document CHEMBL1201862, “PubChem BioAssay data set” (2004).
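Test compounds were applied to cells in 96-well plates for 48 hours at 5 doses. The concentration for 50% growth inhibition is given as GI50.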 Calls of active or inactive are those of the source. Cut-off read from the data, not from the text of the source: active = GI50 up to about 1.1 µM and inactive = higher.

Experiments:
Assay in all cases: growth of human tumour cells (NCI), 48 h
SNB-75 = tested on: SNB-75
MCF7 = tested on: MCF7
RXF 393 = tested on: RXF 393
T47D = tested on: T47D
COLO 205 = tested on: COLO 205
786-0 = tested on: 786-0
SNB-19 = tested on: SNB-19
OVCAR-8 = tested on: OVCAR-8
HCT-15 = tested on: HCT-15
M14 = tested on: M14
HOP-92 = tested on: HOP-92
SK-MEL-2 = tested on: SK-MEL-2
UACC-257 = tested on: UACC-257
MOLT-4 = tested on: MOLT-4
TK-10 = tested on: TK-10
SN12C = tested on: SN12C
U-251 = tested on: U-251
MDA-MB-231 = tested on: MDA-MB-231
NCI-H226 = tested on: NCI-H226
PC-3 = tested on: PC-3

SMILES	GI50 (SNB-75)	GI50 (MCF7)	GI50 (RXF 393)	GI50 (T47D)	GI50 (COLO 205)	GI50 (786-0)	GI50 (SNB-19)	GI50 (OVCAR-8)	GI50 (HCT-15) [µM]	GI50 (M14)	GI50 (HOP-92)	GI50 (SK-MEL-2)	GI50 (UACC-257)	GI50 (MOLT-4)	GI50 (TK-10)	GI50 (SN12C)	GI50 (U-251)	GI50 (MDA-MB-231)	GI50 (NCI-H226)	GI50 (PC-3)
Oc1ccc(/N=C/c2ccc(/C=N/c3ccc(O)cc3)cc2)cc1	16.7 µM (inactive)	22.9 µM (inactive)	17.1 µM (inactive)	25.7 µM (inactive)	18.5 µM (inactive)	15.3 µM (inactive)	16 µM (inactive)	13.8 µM (inactive)	15	17.1 µM (inactive)	24.7 µM (inactive)	21.2 µM (inactive)	16.8 µM (inactive)	3.88 µM (inactive)	18.1 µM (inactive)	14.9 µM (inactive)	14.5 µM (inactive)	14.2 µM (inactive)	14.6 µM (inactive)	16.3 µM (inactive)
O=c1[nH]/c(=C/c2ccc3c(c2)OCO3)c(=O)[nH]/c1=C/c1ccc2c(c1)OCO2	> 10 µM (inactive)	> 10 µM (inactive)	> 10 µM (inactive)	> 10 µM (inactive)	> 10 µM (inactive)	> 10 µM (inactive)	> 10 µM (inactive)	> 10 µM (inactive)	> 10	> 10 µM (inactive)	> 10 µM (inactive)	> 10 µM (inactive)	> 10 µM (inactive)	> 10 µM (inactive)	> 10 µM (inactive)	> 10 µM (inactive)	> 10 µM (inactive)	> 10 µM (inactive)	> 10 µM (inactive)	> 10 µM (inactive)
CC1(c2ccc(Cl)s2)CC(c2ccc(Cl)s2)=C(C#N)C(=C(C#N)C#N)N1 (stereo unspecified)	22.2 µM (inactive)	17.6 µM (inactive)	16.9 µM (inactive)	18.8 µM (inactive)	19.9 µM (inactive)	19.8 µM (inactive)	20.8 µM (inactive)	20.8 µM (inactive)	17.4	19.4 µM (inactive)	15.4 µM (inactive)	18.6 µM (inactive)	21.9 µM (inactive)	28.1 µM (inactive)	22.4 µM (inactive)	21 µM (inactive)	17.3 µM (inactive)	23.2 µM (inactive)	26.9 µM (inactive)	17.6 µM (inactive)
CC(=O)N1C(Nc2ccccn2)CCN1c1ccccc1 (stereo unspecified)	> 10 µM (inactive)	> 10 µM (inactive)	> 10 µM (inactive)	> 10 µM (inactive)	> 10 µM (inactive)	> 10 µM (inactive)	> 10 µM (inactive)	> 10 µM (inactive)	> 10	> 10 µM (inactive)	> 10 µM (inactive)	> 10 µM (inactive)	> 10 µM (inactive)	> 10 µM (inactive)	> 10 µM (inactive)	> 10 µM (inactive)		> 10 µM (inactive)	> 10 µM (inactive)	> 10 µM (inactive)
CCN(CCCl)c1cccc(NC(=O)c2ccc(C(=O)Nc3cccc(CN(C)C)c3)cc2)c1	0.207 µM (active)	0.0215 µM (active)	< 0.01 µM (active)	0.0412 µM (active)	0.11 µM (active)	0.0239 µM (active)	0.0497 µM (active)	0.183 µM (active)	0.605	0.204 µM (active)	0.144 µM (active)	0.0301 µM (active)	0.113 µM (active)	0.0246 µM (active)	0.372 µM (active)	0.335 µM (active)	0.0349 µM (active)	0.195 µM (active)	0.219 µM (active)	0.044 µM (active)
COc1cc2ccc(/C=C\[N+](=O)[O-])cc2cc1OC	2.48 µM (inactive)	2.24 µM (inactive)	1.87 µM (inactive)	2.92 µM (inactive)	4.07 µM (inactive)	1.68 µM (inactive)	7.52 µM (inactive)	3.12 µM (inactive)	3.21	2.65 µM (inactive)	4.41 µM (inactive)	2.86 µM (inactive)	3.11 µM (inactive)	5.09 µM (inactive)	3.08 µM (inactive)	2.37 µM (inactive)	2.65 µM (inactive)	2.84 µM (inactive)	27.7 µM (inactive)	2.58 µM (inactive)
C=CCN1C[C@H](C)N([C@H](c2ccc(C(=O)NC(CC)CC)cc2)c2cccc(OC)c2)C[C@H]1C	> 100 µM (inactive)	35.2 µM (inactive)	33.7 µM (inactive)	29 µM (inactive)	17.9 µM (inactive)	34.6 µM (inactive)	75 µM (inactive)	62.5 µM (inactive)	29.4	17.7 µM (inactive)	31.7 µM (inactive)	20.9 µM (inactive)	26.2 µM (inactive)	> 100 µM (inactive)	66.4 µM (inactive)	36.8 µM (inactive)	34 µM (inactive)	28 µM (inactive)	70.5 µM (inactive)	31.1 µM (inactive)
O=C1CCC2(CC1CC(Sc1ccccc1)Sc1ccccc1)OCCO2 (stereo unspecified)	80.4 µM (inactive)	32 µM (inactive)	36.1 µM (inactive)	22.5 µM (inactive)	25.2 µM (inactive)	45.7 µM (inactive)	74.1 µM (inactive)	42.5 µM (inactive)	37.1	43.9 µM (inactive)	28 µM (inactive)	24.9 µM (inactive)	36.8 µM (inactive)	20.7 µM (inactive)	62.7 µM (inactive)		41.9 µM (inactive)	83.4 µM (inactive)	58.7 µM (inactive)	25.2 µM (inactive)
CC1(C)N=C(/C(Cl)=[N+](/[O-])C(=O)c2ccc(F)cc2)C(C)(C)N1O	16.6 µM (inactive)	19.1 µM (inactive)	14.8 µM (inactive)	25.7 µM (inactive)	18.5 µM (inactive)	14.6 µM (inactive)	> 100 µM (inactive)	17.5 µM (inactive)	13.4	16.1 µM (inactive)	24.5 µM (inactive)	17.1 µM (inactive)	17.1 µM (inactive)		16.1 µM (inactive)	15.8 µM (inactive)	> 10 µM (inactive)	16.8 µM (inactive)	22.7 µM (inactive)	17.5 µM (inactive)
CC(=O)OCC1OC(n2c(C)c(C)c(C)c(C#N)c2=S)C(OC(C)=O)C(OC(C)=O)C1OC(C)=O (stereo unspecified)	80 µM (inactive)	> 100 µM (inactive)	18.6 µM (inactive)	> 100 µM (inactive)	> 100 µM (inactive)	23.7 µM (inactive)	33.7 µM (inactive)	> 100 µM (inactive)	> 100	44 µM (inactive)	34.1 µM (inactive)	31.9 µM (inactive)	> 100 µM (inactive)	> 100 µM (inactive)	46.6 µM (inactive)	> 100 µM (inactive)	27.6 µM (inactive)	> 100 µM (inactive)	> 100 µM (inactive)	> 100 µM (inactive)
CCN(CCC#N)C(=O)Nc1ccccc1	93.1 µM (inactive)	> 100 µM (inactive)	> 100 µM (inactive)	> 100 µM (inactive)	> 100 µM (inactive)	> 100 µM (inactive)	> 100 µM (inactive)	> 100 µM (inactive)	> 100	> 100 µM (inactive)	> 100 µM (inactive)	> 100 µM (inactive)	> 100 µM (inactive)	> 100 µM (inactive)	> 100 µM (inactive)	> 100 µM (inactive)	> 100 µM (inactive)	> 100 µM (inactive)	> 100 µM (inactive)	> 100 µM (inactive)
COc1ccccc1NC1Oc2cc3c(cc2C(c2cc(OC)c(OC)c(OC)c2)C1C)OCO3 (stereo unspecified)	0.951 µM (active)	2.65 µM (inactive)	1.14 µM (inactive)	5.86 µM (inactive)	1.95 µM (inactive)	3.5 µM (inactive)	6.56 µM (inactive)	4.69 µM (inactive)	3.06	3.26 µM (inactive)	3.24 µM (inactive)	5.85 µM (inactive)	8.17 µM (inactive)	3.8 µM (inactive)	> 100 µM (inactive)	5.57 µM (inactive)	2.92 µM (inactive)	1.78 µM (inactive)	4.35 µM (inactive)	1.12 µM (active)
O=C(Nc1c(Cl)cc([N+](=O)[O-])cc1Cl)C(=O)C1C(=O)NC(=S)NC1=O	> 100 µM (inactive)	> 100 µM (inactive)	> 100 µM (inactive)	> 100 µM (inactive)		> 100 µM (inactive)	> 100 µM (inactive)	> 100 µM (inactive)	> 100	> 100 µM (inactive)	> 100 µM (inactive)	> 100 µM (inactive)	> 100 µM (inactive)	> 10 µM (inactive)	> 100 µM (inactive)	> 100 µM (inactive)	> 100 µM (inactive)	> 100 µM (inactive)	> 100 µM (inactive)	> 100 µM (inactive)
O=C1/C(=N/CCc2cc(Br)c(O)c(Br)c2)C=C(O)c2cccnc21	1.13 µM (inactive)	1.61 µM (inactive)	2.24 µM (inactive)	7.78 µM (inactive)	1.75 µM (inactive)	2.22 µM (inactive)	2.3 µM (inactive)	4.38 µM (inactive)	2.36	1.31 µM (inactive)	7.94 µM (inactive)	1.52 µM (inactive)	1.37 µM (inactive)	6.75 µM (inactive)	3.33 µM (inactive)	1.35 µM (inactive)	1.93 µM (inactive)	7.35 µM (inactive)	1.87 µM (inactive)	3.92 µM (inactive)
